Data taken from patent US20130116263A1, “PAK INHIBITORS FOR THE TREATMENT OF CELL PROLIFERATIVE DISORDERS” (AFRAXIS, INC., priority 2011, published 2013).

Tests used:
Format in all cases: biochemical
PAK3 = PAK3 (Homo sapiens, UniProt O75914); experiment: In vitro PAK inhibition assay (Z'-LYTE, SelectScreen), PAK3; details: read-out: PAK3 IC50
Method: (§1) Compounds are screened in 1% DMSO (final) in the well. For 10 point titrations, 3-fold serial dilutions are conducted. All Peptide/Kinase Mixtures are diluted to a 2× working concentration in the appropriate Kinase Buffer
The 2×PAK3/Ser/Thr 20 mixture is prepared in 50 mM HEPES pH 7.5, 0.01% BRIJ-35, 10 mM MgCl2, 1 mM EGTA.
(§2) 1. Add the following solutions to a well in a 384-well plate: • 2.5 μL of 4× Test Compound OR (100 nL 100× Test Compound plus 2.4 μL kinase buffer) • 5 μL of 2× Peptide/Kinase (PAK) Mixture • 2.5 μL of 4×ATP Solution
(§3) 3. Incubate the PAK Kinase Reaction at room temperature for 60-minutes
(§4) 4. Add 5 μL of Development Reagent Solution to each well
(§5) 6. Incubate the Development Reaction for 60-minutes
(§6) 7. Determine the fluorescence using a fluorescence plate reader
(§7) SelectScreen® Kinase Profiling Service uses XLfit from IDBS.
(§8) The representative IC50 value with a known inhibitor for each kinase was determined at the ATP bin nearest to the ATP Km app.

PAK4 = PAK4 (Homo sapiens, UniProt O96013); experiment: In vitro PAK inhibition assay (Z'-LYTE, SelectScreen), PAK4
Method: as §1
The 2×PAK-4/Ser/Thr 20 mixture is prepared in 50 mM HEPES pH 7.5, 0.01% BRIJ-35, 10 mM MgCl2, 1 mM EGTA. The final 10 μL Kinase Reaction consists of 0.1-0.75 ng PAK-4 and 2 μM Ser/Thr 20 in 50 mM HEPES pH 7.5, 0.01% BRIJ-35, 10 mM MgCl2, 1 mM EGTA. After the 1 hour Kinase Reaction incubation, 5 μL of a 1:256 dilution of Development Reagent A is added.
as §2, §3, §4, §5, §6
SelectScreen® Kinase Profiling Service uses XLfit from IDBS. The dose response curve is curve fit to model number 205 (sigmoidal dose-response model).
The table below provides specifications and data around each kinase. The representative IC50 value with a known inhibitor for each kinase was determined at the ATP bin nearest to the ATP Km app.

PAK1 = PAK1 (Homo sapiens, UniProt Q13153); experiment: In vitro PAK inhibition assay (Z'-LYTE, SelectScreen), PAK1; details: read-out: PAK1 IC50
Method: as §1
The 2×PAK1/Ser/Thr 19 mixture is prepared in 50 mM HEPES pH 7.5, 0.01% BRIJ-35, 10 mM MgCl2, 1 mM EGTA.
as §2, §3, §4, §5, §6, §7, §8

PAK2 (PAK65) = PAK2 (PAK65) (Homo sapiens, UniProt Q13177); experiment: In vitro PAK inhibition assay (Z'-LYTE, SelectScreen), PAK2; details: read-out: PAK2 IC50
Method: as §1
The 2×PAK2 (PAK65)/Ser/Thr 20 mixture is prepared in 50 mM HEPES pH 7.5, 0.01% BRIJ-35, 10 mM MgCl2, 1 mM EGTA. The final 10 μL Kinase Reaction consists of 0.29-6 ng PAK2 (PAK65) and 2 μM Ser/Thr 20 in 50 mM HEPES pH 7.5, 0.01% BRIJ-35, 10 mM MgCl2, 1 mM EGTA.
as §2, §3, §4, §5, §6, §7, §8

PAK3, sequence (O75914 1-544 isoform O75914-2): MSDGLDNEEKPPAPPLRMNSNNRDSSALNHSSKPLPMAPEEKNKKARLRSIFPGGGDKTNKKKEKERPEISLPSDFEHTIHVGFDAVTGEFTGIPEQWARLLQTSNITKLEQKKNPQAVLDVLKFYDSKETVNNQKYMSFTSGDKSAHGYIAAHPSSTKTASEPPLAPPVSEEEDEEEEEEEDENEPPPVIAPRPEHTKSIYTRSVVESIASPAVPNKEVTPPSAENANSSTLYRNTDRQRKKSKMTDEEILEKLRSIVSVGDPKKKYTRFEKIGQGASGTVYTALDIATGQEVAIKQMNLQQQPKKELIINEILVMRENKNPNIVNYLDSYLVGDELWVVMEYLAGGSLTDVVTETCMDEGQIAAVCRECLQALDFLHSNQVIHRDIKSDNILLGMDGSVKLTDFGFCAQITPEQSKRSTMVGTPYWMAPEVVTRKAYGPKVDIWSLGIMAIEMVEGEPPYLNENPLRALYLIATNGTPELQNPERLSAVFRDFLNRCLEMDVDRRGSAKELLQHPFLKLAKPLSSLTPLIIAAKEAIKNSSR
PAK1, sequence (Q13153 whole entry): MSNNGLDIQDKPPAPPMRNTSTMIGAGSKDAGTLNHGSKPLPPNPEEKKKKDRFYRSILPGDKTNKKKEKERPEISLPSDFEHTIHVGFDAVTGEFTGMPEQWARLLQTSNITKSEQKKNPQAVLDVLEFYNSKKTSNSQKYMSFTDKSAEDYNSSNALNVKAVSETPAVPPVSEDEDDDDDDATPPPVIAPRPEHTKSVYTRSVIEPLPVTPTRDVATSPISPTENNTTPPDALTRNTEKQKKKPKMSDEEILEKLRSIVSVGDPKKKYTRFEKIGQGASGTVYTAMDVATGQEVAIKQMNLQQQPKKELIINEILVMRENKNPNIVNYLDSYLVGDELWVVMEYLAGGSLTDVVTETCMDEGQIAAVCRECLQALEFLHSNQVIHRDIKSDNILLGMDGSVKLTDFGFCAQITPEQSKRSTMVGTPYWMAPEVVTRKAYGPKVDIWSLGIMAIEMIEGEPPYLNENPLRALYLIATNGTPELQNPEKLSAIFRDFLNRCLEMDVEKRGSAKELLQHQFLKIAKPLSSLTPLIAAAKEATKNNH
PAK4, sequence (O96013 whole entry): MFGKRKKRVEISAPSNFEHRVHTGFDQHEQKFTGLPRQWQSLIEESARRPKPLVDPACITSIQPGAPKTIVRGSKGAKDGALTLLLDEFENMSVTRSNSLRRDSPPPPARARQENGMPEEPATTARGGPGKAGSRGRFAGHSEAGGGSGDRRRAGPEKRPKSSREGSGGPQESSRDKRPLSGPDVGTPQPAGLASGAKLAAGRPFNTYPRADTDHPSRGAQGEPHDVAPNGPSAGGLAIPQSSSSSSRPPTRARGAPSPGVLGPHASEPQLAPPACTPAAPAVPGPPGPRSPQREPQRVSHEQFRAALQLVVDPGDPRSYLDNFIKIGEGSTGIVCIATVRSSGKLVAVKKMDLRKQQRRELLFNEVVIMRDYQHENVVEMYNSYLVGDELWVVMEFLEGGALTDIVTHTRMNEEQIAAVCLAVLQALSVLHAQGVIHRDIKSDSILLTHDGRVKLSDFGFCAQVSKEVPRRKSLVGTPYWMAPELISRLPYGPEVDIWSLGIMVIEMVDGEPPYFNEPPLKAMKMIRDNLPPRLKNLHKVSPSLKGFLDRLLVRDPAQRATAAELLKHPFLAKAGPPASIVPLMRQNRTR
PAK2 (PAK65), sequence (Q13177 whole entry): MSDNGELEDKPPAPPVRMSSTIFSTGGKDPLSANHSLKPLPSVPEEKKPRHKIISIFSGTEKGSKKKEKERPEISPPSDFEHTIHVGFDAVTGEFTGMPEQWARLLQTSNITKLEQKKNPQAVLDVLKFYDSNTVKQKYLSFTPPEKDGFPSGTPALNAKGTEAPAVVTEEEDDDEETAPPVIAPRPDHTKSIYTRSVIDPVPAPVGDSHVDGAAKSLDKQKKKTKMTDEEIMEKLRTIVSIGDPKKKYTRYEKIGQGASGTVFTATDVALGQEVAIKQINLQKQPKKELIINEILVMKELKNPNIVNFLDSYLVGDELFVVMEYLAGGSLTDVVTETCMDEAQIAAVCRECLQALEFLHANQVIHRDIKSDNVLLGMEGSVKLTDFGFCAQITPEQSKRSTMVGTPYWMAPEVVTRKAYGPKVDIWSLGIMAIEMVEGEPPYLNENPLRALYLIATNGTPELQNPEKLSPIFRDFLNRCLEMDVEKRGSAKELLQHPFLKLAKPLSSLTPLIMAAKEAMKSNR

Compound | IC50 (PAK3) | IC50 (PAK4) | IC50 (PAK1) | IC50 (PAK2 (PAK65))
CCn1c(=O)c(-c2ccc(-c3nccnc3C)cc2Cl)cc2cnc(NC3CCCCC3)nc21 [Example 3] | > 5000 nM | > 5000 nM | > 5000 nM | 500 to 5000 nM
CCn1c(=O)c(-c2ccc(-c3nccnc3C)cc2Cl)cc2cnc(NC3CC[S+]([O-])CC3)nc21 (stereo not drawn) [Example 74] | 500 to 5000 nM | > 5000 nM | 50 to 500 nM | 50 to 500 nM
CCn1c(=O)c(-c2ccc(-c3nccnc3C)cc2Cl)cc2cnc(NC3CCN(C(C)=O)CC3)nc21 [Example 80] | 500 to 5000 nM | > 5000 nM | 500 to 5000 nM | 50 to 500 nM
CCn1c(=O)c(-c2ccc(-c3nccnc3C)cc2Cl)cc2cnc(NCCN(C)C)nc21 [Example 13] | 500 to 5000 nM | > 5000 nM | 500 to 5000 nM | 500 to 5000 nM
CCn1c(=O)c(-c2ccc(-c3nccnc3C)cc2Cl)cc2cnc(NC3CCCNC3)nc21 (stereo not drawn) [Example 82] | 500 to 5000 nM | > 5000 nM | 50 to 500 nM | 50 to 500 nM
CCn1c(=O)c(-c2ccc(-c3cnc(C)cn3)cc2Cl)cc2cnc(N[C@@H]3CCOC3)nc21 [Example 50] | 500 to 5000 nM | > 5000 nM | 50 to 500 nM | 50 to 500 nM
Cc1nccnc1-c1ccc(-c2cc3cnc(NC4CCOCC4)nc3[nH]c2=O)c(Cl)c1 [Example 10] | 500 to 5000 nM | > 5000 nM | 50 to 500 nM | 50 to 500 nM
CCn1c(=O)c(-c2ccc(-c3cccnc3OC)cc2Cl)cc2cnc(NC3CCOCC3)nc21 [Example 52] | > 5000 nM | > 5000 nM | 500 to 5000 nM | > 5000 nM
CCn1c(=O)c(-c2ccc(-c3cccnc3)cc2Cl)cc2cnc(N[C@@H]3CCOC3)nc21 [Example 51] | 500 to 5000 nM | > 5000 nM | 50 to 500 nM | 50 to 500 nM
Cc1cncc(-c2ccc(-c3cc4cnc(N[C@@H]5CCOC5)nc4n(C4CCN(C)CC4)c3=O)c(Cl)c2)n1 [Example 107] | 500 to 5000 nM | > 5000 nM | 50 to 500 nM | 50 to 500 nM
CCn1c(=O)c(-c2ccc(-c3cccnc3C)cc2Cl)cc2cnc(N[C@@H]3CCOC3)nc21 [Example 59] | 500 to 5000 nM | > 5000 nM | 500 to 5000 nM | 500 to 5000 nM
6-(2-chloro-4-(5-methyl-1,2,4-oxadiazol-3-yl)phenyl)-2-(4-(1-methylpiperidin-4-yl)phenylamino)pyrido[2,3-d]pyrimidin-7(8H)-one [Example 95] | 500 to 5000 nM | > 5000 nM | 50 to 500 nM | 50 to 500 nM
CCn1c(=O)c(-c2ccc(-c3nccnc3C)cc2Cl)cc2cnc(NC3CCN(C)CC3)nc21 [Example 5] | 500 to 5000 nM | > 5000 nM | 500 to 5000 nM | 500 to 5000 nM
CCn1c(=O)c(-c2ccc(-c3cnc(C)s3)cc2Cl)cc2cnc(N[C@@H]3CCOC3)nc21 [Example 55] | 500 to 5000 nM | > 5000 nM | 50 to 500 nM | 50 to 500 nM
CCn1c(=O)c(-c2ccc(-c3cncc(C)n3)cc2Cl)cc2cnc(NCCCOCCCN)nc21 [Example 129] | 50 to 500 nM | > 5000 nM | < 50 nM | < 50 nM
CCn1c(=O)c(-c2ccc(-c3nccnc3C)cc2Cl)cc2cnc(N[C@@H]3CCOC3)nc21 [Example 58] | 500 to 5000 nM | > 5000 nM | 50 to 500 nM | 50 to 500 nM
Cc1nccnc1-c1ccc(-c2cc3cnc(N[C@@H]4CCOC4)nc3n(Cc3ccncc3)c2=O)c(Cl)c1 [Example 124] | 500 to 5000 nM | > 5000 nM | 50 to 500 nM | 50 to 500 nM
CCn1c(=O)c(-c2ccc(-c3cncc(C)n3)cc2Cl)cc2cnc(NCCCOCCCN(C)C)nc21 [Example 130] | 50 to 500 nM | > 5000 nM | 50 to 500 nM | 50 to 500 nM
CCn1c(=O)c(-c2ccc(-c3cccnc3F)cc2Cl)cc2cnc(NC3CCOC3)nc21 (stereo not drawn) [Example 39] | 50 to 500 nM | > 5000 nM | 50 to 500 nM | 50 to 500 nM
CCn1c(=O)c(-c2ccc(-c3cncc(C)n3)cc2Cl)cc2cnc(NCCOCCN(C)C)nc21 [Example 127, 6-(2-chloro-4-(6-methylpyrazin-2-yl)phenyl)-2-((2-(2-(dimethylamino)ethoxy)ethyl)amino)-8-ethylpyrido[2,3-d]pyrimidin-7(8H)-one] | 50 to 500 nM | > 5000 nM | 50 to 500 nM | 50 to 500 nM

Now from value to compound:

IC50 (PAK3) | IC50 (PAK4) | IC50 (PAK1) | IC50 (PAK2 (PAK65)) | Compound
50 to 500 nM | > 5000 nM | < 50 nM | 50 to 500 nM | CCn1c(=O)c(-c2ccc(-c3cncc(C)n3)cc2Cl)cc2cnc(NC3C[C@@H](C)O[C@@H](C)C3)nc21 (stereo partly drawn) [Example 37]
50 to 500 nM | > 5000 nM | < 50 nM | < 50 nM | Cc1cncc(-c2ccc(-c3cc4cnc(NC5CCCCC5)nc4n([C@H]4CC[C@H](N)CC4)c3=O)c(Cl)c2)n1 [Example 114]
50 to 500 nM | > 5000 nM | 50 to 500 nM | 50 to 500 nM | CCn1c(=O)c(-c2ccc(-c3noc(C)n3)cc2Cl)cc2cnc(NC3CCOCC3)nc21 [Example 4]
50 to 500 nM | > 5000 nM | < 50 nM | 50 to 500 nM | Cc1cncc(-c2ccc(-c3cc4cnc(NC5CCOCC5)nc4n(Cc4ccccc4Cl)c3=O)c(Cl)c2)n1 [Example 42]
50 to 500 nM | > 5000 nM | < 50 nM | < 50 nM | CCn1c(=O)c(-c2ccc(-c3cncc(C)n3)cc2Cl)cc2cnc(NCC3CCC(N)CC3)nc21 (stereo not drawn) [Example 131]
50 to 500 nM | > 5000 nM | < 50 nM | < 50 nM | CCn1c(=O)c(-c2ccc(-c3cncc(C)n3)cc2Cl)cc2cnc(NC3CCC(CCN)CC3)nc21 (stereo not drawn) [Example 134]
50 to 500 nM | > 5000 nM | 50 to 500 nM | 50 to 500 nM | CCn1c(=O)c(-c2ccc(-c3nccnc3C)cc2C)cc2cnc(NC3CCOCC3)nc21 [Example 1, 8-ethyl-6-(2-methyl-4-(3-methylpyrazin-2-yl)phenyl)-2-(tetrahydro-2H-pyran-4-ylamino)pyrido[2,3-d]pyrimidin-7(8H)-one]
50 to 500 nM | > 5000 nM | 50 to 500 nM | 50 to 500 nM | CCn1c(=O)c(-c2ccc(-c3cccnc3O)cc2Cl)cc2cnc(NC3CCOCC3)nc21 [Example 48]
50 to 500 nM | > 5000 nM | < 50 nM | < 50 nM | CCn1c(=O)c(-c2ccc(-c3nccnc3C)cc2Cl)cc2cnc(N[C@H]3CCOC(C)(C)C3)nc21 (stereo in doubt) [Example 77]
50 to 500 nM | > 5000 nM | 50 to 500 nM | < 50 nM | CCn1c(=O)c(-c2ccc(-c3nccnc3C)cc2Cl)cc2cnc(NC3CCNC(=O)C3)nc21 (stereo not drawn) [Example 33]
50 to 500 nM | > 5000 nM | 50 to 500 nM | < 50 nM | Cc1nccnc1-c1ccc(-c2cc3cnc(N[C@@H]4CCOC4)nc3n(Cc3ccccn3)c2=O)c(Cl)c1 [Example 123]
50 to 500 nM | > 5000 nM | 50 to 500 nM | 50 to 500 nM | Cc1nccnc1-c1ccc(-c2cc3cnc(NC4CCOCC4)nc3n(C)c2=O)c(Cl)c1 [Example 9]
50 to 500 nM | > 5000 nM | < 50 nM | < 50 nM | Cc1cncc(-c2ccc(-c3cc4cnc(N[C@@H]5CCOC5)nc4n([C@H]4CC[C@H](N)CC4)c3=O)c(Cl)c2)n1 [Example 109]
< 50 nM | > 5000 nM | < 50 nM | < 50 nM | Cc1cncc(-c2ccc(-c3cc4cnc(N[C@H]5CCOC5)nc4n(CCCN)c3=O)c(Cl)c2)n1 [Example 98]
50 to 500 nM | > 5000 nM | 50 to 500 nM | 50 to 500 nM | CCn1c(=O)c(-c2ccc(-c3nccnc3C)cc2Cl)cc2cnc(NC3CCN(C)C(=O)C3)nc21 (stereo not drawn) [Example 35]
50 to 500 nM | > 5000 nM | < 50 nM | < 50 nM | Cc1nccnc1-c1ccc(-c2cc3cnc(N[C@H]4CCOC4)nc3n(Cc3ccccn3)c2=O)c(Cl)c1 [Example 125]
